Assay results as given in PubChem BioAssay AID248 (DTP/NCI, 2004).
Several values for one entry are separate records, joined by “and”; a condition that tells them apart may be missing. Equal values may be shown once. Inconclusive results and toxic doses are left out. Cut-off read from the data, not from the text of the source: active = T/C of 150% or more; inactive = T/C below 125%.

Tested on: L1210 leukemia ip in BDF1 mice, survival T/C
Test: NCI In Vivo Anticancer Drug Screen. Data for tumor model L1210 Leukemia (intraperitoneal) in B6D2F1 (BDF1) mice
Conditions: endpoint: mean survival time, higher = longer survival
Procedure, shortened: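 Value reflects the ratio of survival in compound-treated mice to survival in vehicle-treated controls, with both groups carrying the same transplanted tumor.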

[1] = dose: 6.25 mg/kg/injection, schedule: Q01DX009 (ip), vehicle: Klucel (hydroxypropylcellulose) (HPC)
[2] = dose: 100.0 mg/kg/injection, schedule: Q04DX003 (ip), vehicle: Klucel (hydroxypropylcellulose) (HPC)
[3] = dose: 200.0 mg/kg/injection, schedule: Q04DX003 (ip), vehicle: Klucel (hydroxypropylcellulose) (HPC)
[4] = dose: 100.0 mg/kg/injection, schedule: Q01DX001 (ip), vehicle: other
[5] = dose: 200.0 mg/kg/injection, schedule: Q01DX001 (ip), vehicle: other
[6] = dose: 100.0 mg/kg/injection, schedule: Q04DX002 (ip), vehicle: Klucel (hydroxypropylcellulose) (HPC)
[7] = dose: 100.0 mg/kg/injection, schedule: Q01DX001 (ip), vehicle: Klucel (hydroxypropylcellulose) (HPC)
[8] = dose: 200.0 mg/kg/injection, schedule: Q01DX001 (ip), vehicle: Klucel (hydroxypropylcellulose) (HPC)
[9] = dose: 50.0 mg/kg/injection, schedule: Q01DX009 (ip), vehicle: saline with Tween-80
[10] = dose: 100.0 mg/kg/injection, schedule: Q01DX009 (ip), vehicle: saline with Tween-80
[11] = dose: 200.0 mg/kg/injection, schedule: Q01DX009 (ip), vehicle: saline with Tween-80
[12] = dose: 100.0 mg/kg/injection, schedule: Q01DX009 (ip), vehicle: saline
[13] = dose: 200.0 mg/kg/injection, schedule: Q01DX009 (ip), vehicle: saline
[14] = dose: 400.0 mg/kg/injection, schedule: Q01DX009 (ip), vehicle: saline

Measured: T/C

C=CCNc1ccc(C)cc1
inactive: dose: 50.0 mg/kg/injection, schedule: Q01DX009 (ip), vehicle: other 92 % of control | dose: 100.0 mg/kg/injection, schedule: Q01DX009 (ip), vehicle: other 104 % of control | dose: 100.0 mg/kg/injection, schedule: Q04DX003 (ip), vehicle: other 100 % of control | dose: 200.0 mg/kg/injection, schedule: Q04DX003 (ip), vehicle: other 109 % of control

CCCCC#CC(=O)OC
inactive: dose: 75.0 mg/kg/injection, schedule: Q01DX001 (ip), vehicle: other 106 % of control | dose: 150.0 mg/kg/injection, schedule: Q01DX001 (ip), vehicle: other 97 % of control | dose: 300.0 mg/kg/injection, schedule: Q01DX001 (ip), vehicle: other 101 % of control

N#Cc1ccc(Br)cc1[N+](=O)[O-]
inactive: [1] 103 % of control | [2] 89 % of control | [3] 86 % of control

O=C(NCCCCCCCCCCNC(=O)Nc1cccc(C2=NCCN2)c1)Nc1cccc(C2=NCCN2)c1
inactive: dose: 10.0 mg/kg/injection, schedule: Q01DX Z (ip), vehicle: water 106 % of control | dose: 20.0 mg/kg/injection, schedule: Q01DX Z (ip), vehicle: water 90 % of control

O=C1C(Cl)=C(c2ccccc2)C(=O)C(Cl)=C1c1ccccc1
inactive: [4] 93 % of control | [5] 88 % of control

CS(=O)(=O)OCC(O)C(O)COS(C)(=O)=O (configuration not stated)
inactive: dose: 50.0 mg/kg/injection, schedule: Q01DX010 (ip), vehicle: saline 93 % of control and 91 % of control | dose: 100.0 mg/kg/injection, schedule: Q01DX010 (ip), vehicle: saline 96 % of control | dose: 125.0 mg/kg/injection, schedule: Q01DX Z (ip), vehicle: carboxymethylcellulose (CMC) 103 % of control | dose: 200.0 mg/kg/injection, schedule: Q01DX010 (ip), vehicle: saline 102 % of control and 108 % of control | dose: 250.0 mg/kg/injection, schedule: Q01DX Z (ip), vehicle: carboxymethylcellulose (CMC) 112 % of control | dose: 400.0 mg/kg/injection, schedule: Q01DX010 (ip), vehicle: saline 117 % of control | dose: 440.0 mg/kg/injection, schedule: Q01DX001 (ip), vehicle: carboxymethylcellulose (CMC) 101 % of control and 107 % of control | dose: 500.0 mg/kg/injection, schedule: Q01DX Z (ip), vehicle: carboxymethylcellulose (CMC) 123 % of control | dose: 670.0 mg/kg/injection, schedule: Q01DX001 (ip), vehicle: carboxymethylcellulose (CMC) 101 % of control and 107 % of control | dose: 1000.0 mg/kg/injection, schedule: Q01DX001 (ip), vehicle: carboxymethylcellulose (CMC) 103 % of control and 110 % of control

CCCCN=Cc1ccccc1O.CCCCN=Cc1ccccc1O.[Cu]
inactive: [1] 91 % of control | dose: 12.5 mg/kg/injection, schedule: Q04DX002 (ip), vehicle: Klucel (hydroxypropylcellulose) (HPC) 107 % of control | dose: 25.0 mg/kg/injection, schedule: Q01DX009 (ip), vehicle: Klucel (hydroxypropylcellulose) (HPC) 97 % of control | dose: 25.0 mg/kg/injection, schedule: Q04DX002 (ip), vehicle: Klucel (hydroxypropylcellulose) (HPC) 89 % of control | [6] 104 % of control

CCOC(OCC)/C(C)=N\NC(N)=S
inactive: dose: 15.0 mg/kg/injection, schedule: Q01DX Z (ip), vehicle: carboxymethylcellulose (CMC) 98 % of control | dose: 30.0 mg/kg/injection, schedule: Q01DX Z (ip), vehicle: carboxymethylcellulose (CMC) 102 % of control | dose: 60.0 mg/kg/injection, schedule: Q01DX Z (ip), vehicle: carboxymethylcellulose (CMC) 96 % of control | dose: 120.0 mg/kg/injection, schedule: Q01DX Z (ip), vehicle: carboxymethylcellulose (CMC) 86 % of control | dose: 120.0 mg/kg/injection, schedule: Q01DX Z (oral), vehicle: carboxymethylcellulose (CMC) 95 % of control | dose: 240.0 mg/kg/injection, schedule: Q01DX Z (oral), vehicle: carboxymethylcellulose (CMC) 97 % of control | dose: 480.0 mg/kg/injection, schedule: Q01DX Z (oral), vehicle: carboxymethylcellulose (CMC) 94 % of control

CCN(CC)C(/C=C/c1ccccc1)=N\S(=O)(=O)c1ccccc1
inactive: dose: 50.0 mg/kg/injection, schedule: Q01DX001 (ip), vehicle: Klucel (hydroxypropylcellulose) (HPC) 102 % of control | [7] 105 % of control | [8] 104 % of control

O/N=C/CCCC/C=N/O
inactive: [9] 91 % of control | [10] 91 % of control | [11] 91 % of control

Cc1ccc(Oc2cccc3c[n+](C)ccc23)cc1
inactive: dose: 25.0 mg/kg/injection, schedule: Q04DX002 (ip), vehicle: DMSO 93 % of control | dose: 50.0 mg/kg/injection, schedule: Q04DX002 (ip), vehicle: DMSO 96 % of control | dose: 100.0 mg/kg/injection, schedule: Q04DX002 (ip), vehicle: DMSO 86 % of control

O=C(O)C1C2CCCCC21 (configuration not stated)
inactive: [12] 97 % of control | dose: 100.0 mg/kg/injection, schedule: Q04DX003 (ip), vehicle: saline 102 % of control | [13] 97 % of control | dose: 200.0 mg/kg/injection, schedule: Q04DX003 (ip), vehicle: saline 103 % of control | [14] 90 % of control | dose: 400.0 mg/kg/injection, schedule: Q04DX003 (ip), vehicle: saline 94 % of control

CCOC(=O)c1sc(NC(C)=O)c(C(=O)OCC)c1C
inactive: [12] 96 % of control | dose: 100.0 mg/kg/injection, schedule: Q04DX003 (ip), vehicle: saline with Tween-80 98 % of control | [13] 101 % of control | dose: 200.0 mg/kg/injection, schedule: Q04DX003 (ip), vehicle: saline with Tween-80 114 % of control | [14] 101 % of control | dose: 400.0 mg/kg/injection, schedule: Q04DX003 (ip), vehicle: saline with Tween-80 96 % of control

CC1(C)OCC(C2OC3OC(C)(C)OC3C2O)O1 (configuration not stated)
inactive: dose: 100.0 mg/kg/injection, schedule: Q01DX001 (ip), vehicle: saline 97 % of control | dose: 200.0 mg/kg/injection, schedule: Q01DX001 (ip), vehicle: saline 100 % of control | dose: 400.0 mg/kg/injection, schedule: Q01DX001 (ip), vehicle: saline 100 % of control

Cc1cc(C)nc(NC(=O)COc2ccc(Cl)cc2)c1
inactive: dose: 50.0 mg/kg/injection, schedule: Q01DX009 (ip), vehicle: Klucel (hydroxypropylcellulose) (HPC) 97 % of control | dose: 100.0 mg/kg/injection, schedule: Q01DX009 (ip), vehicle: Klucel (hydroxypropylcellulose) (HPC) 100 % of control | [2] 101 % of control | dose: 200.0 mg/kg/injection, schedule: Q01DX009 (ip), vehicle: Klucel (hydroxypropylcellulose) (HPC) 93 % of control | [3] 97 % of control

O=[N+]([O-])c1ccccc1/C=N/N1CCN(/N=C/c2ccccc2[N+](=O)[O-])CC1
inactive: dose: 200.0 mg/kg/injection, schedule: Q01DX001 (ip), vehicle: carboxymethylcellulose (CMC) 89 % of control | dose: 400.0 mg/kg/injection, schedule: Q01DX001 (ip), vehicle: carboxymethylcellulose (CMC) 89 % of control

O=C1CC23CCC(=O)C2(CC3)C1 (configuration not stated)
inactive: dose: 75.0 mg/kg/injection, schedule: Q04DX002 (ip), vehicle: saline 103 % of control | dose: 150.0 mg/kg/injection, schedule: Q04DX002 (ip), vehicle: saline 103 % of control | dose: 300.0 mg/kg/injection, schedule: Q04DX002 (ip), vehicle: saline 100 % of control

NC(=O)c1cc(NCCO)c([N+](=O)[O-])cc1[N+](=O)[O-]
inactive: [7] 104 % of control | [8] 100 % of control | dose: 400.0 mg/kg/injection, schedule: Q01DX001 (ip), vehicle: Klucel (hydroxypropylcellulose) (HPC) 96 % of control

O=[N+]([O-])c1ccc(N/N=C(\CCc2ccccc2)c2ccccc2)c([N+](=O)[O-])c1
inactive: [9] 93 % of control | [10] 96 % of control | [11] 86 % of control

CC1(C)CCC(C)(C)C(O)C1O (configuration not stated)
inactive: [6] 92 % of control | dose: 200.0 mg/kg/injection, schedule: Q04DX002 (ip), vehicle: Klucel (hydroxypropylcellulose) (HPC) 105 % of control | dose: 400.0 mg/kg/injection, schedule: Q04DX002 (ip), vehicle: Klucel (hydroxypropylcellulose) (HPC) 118 % of control

COc1cccc2cc(C3(c4ccccc4)OC(=O)c4ccccc43)ccc12 (configuration not stated)
inactive: [4] 90 % of control | [5] 94 % of control | dose: 400.0 mg/kg/injection, schedule: Q01DX001 (ip), vehicle: other 95 % of control
